# Laboratory results taken from ChEMBL document CHEMBL4364244, “New insights into the biological activities of Chrysanthemum morifolium: Natural flavonoids alleviate diabetes by targeting α-glucosidase and the PTP-1B signaling pathway” (Eur J Med Chem, 2019).
# pIC50: −log10 of the molar value. Calls of active or inactive are those of the source. The calls are words filed in the database; no cut-off is given here.
# Columns and labels:
# [1] = Inhibition of baker's yeast alpha-glucosidase using p-nitrophenyl alpha-D-glucopyranoside as substrate measured after 30 mins by spectrophotometry analysis; set-up: species or system Saccharomyces cerevisiae
# [2] = target: T1, Tyrosine-protein phosphatase non-receptor type 1 (Homo sapiens) (UniProt P18031); experiment: Inhibition of human recombinant full length PTP1B expressed in Escherichia coli cells at 1 uM using pNPP as substrate preincubated with enzyme for 5 mins followed by incubation with substrate for 10 mins by spectrophotometry analysis relative to control
# T1 sequence (whole entry): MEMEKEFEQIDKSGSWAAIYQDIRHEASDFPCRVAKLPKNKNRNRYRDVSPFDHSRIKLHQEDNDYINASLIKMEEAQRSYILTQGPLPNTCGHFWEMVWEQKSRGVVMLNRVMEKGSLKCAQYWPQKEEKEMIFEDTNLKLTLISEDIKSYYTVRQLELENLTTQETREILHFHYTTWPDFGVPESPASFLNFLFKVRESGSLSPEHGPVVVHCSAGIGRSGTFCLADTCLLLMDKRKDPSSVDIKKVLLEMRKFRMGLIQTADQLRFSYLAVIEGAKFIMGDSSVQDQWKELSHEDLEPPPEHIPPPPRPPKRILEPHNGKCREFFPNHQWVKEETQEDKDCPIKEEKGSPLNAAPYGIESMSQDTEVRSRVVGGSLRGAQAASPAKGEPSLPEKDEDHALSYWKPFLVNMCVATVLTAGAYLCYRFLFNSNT
# Cricetulus griseus [3] = species: Cricetulus griseus; experiment: Inhibition of PTP1B in CHOK1 cells assessed as increase in phosphorylation of GSK-3beta at Ser9 residue at 20 uM measured after 48 hrs by Western blot analysis; format: cell-based
# [4] = target: T1, Tyrosine-protein phosphatase non-receptor type 1 (Homo sapiens); experiment: Inhibition of human recombinant full length PTP1B expressed in Escherichia coli cells at 10 uM using pNPP as substrate preincubated with enzyme for 5 mins followed by incubation with substrate for 10 mins by spectrophotometry analysis relative to control
# INS1 [5] = experiment: Increase in insulin secretion in high glucose-treated rat INS-1 cells preincubated with compound and 40 mM glucose for 48 hrs followed by stimulation with KRB buffer containing 5 to 30 mM glucose for 60 mins and measured by ELISA; format: functional, cell-based
# HepG2 [6] = experiment: Increase in glucose consumption in human HepG2 cells assessed as glucose concentration in the medium treated at 0.4 to 10 uM after incubating cells in the medium containing glucose measured after 24 hrs by glucose oxidase method; format: functional, cell-based
# Cricetulus griseus [7] = species: Cricetulus griseus; experiment: Inhibition of PTP1B in CHOK1 cells assessed as increase in phosphorylation of AKT at Ser473 residue at 20 uM measured after 48 hrs by Western blot analysis; format: cell-based
# CHO-K1 = experiment: Decrease in PTP1B protein expression in CHOK1 cells at 20 uM measured after 48 hrs by Western blot analysis; format: functional, cell-based; conditions: Cricetulus griseus
# [8] = target: T1, Tyrosine-protein phosphatase non-receptor type 1 (Homo sapiens); experiment: Inhibition of human recombinant full length PTP1B expressed in Escherichia coli cells at 5 uM using pNPP as substrate preincubated with enzyme for 5 mins followed by incubation with substrate for 10 mins by spectrophotometry analysis relative to control
# HepG2 [9] = experiment: Increase in glucose consumption in human HepG2 cells assessed as glucose concentration in the medium treated at 500 uM after incubating cells in the medium containing glucose measured after 24 hrs by glucose oxidase method; format: functional, cell-based
# INS1 [10] = experiment: Increase in insulin secretion in high glucose-treated rat INS-1 cells at 0.15 uM preincubated with compound and 40 mM glucose for 48 hrs followed by stimulation with KRB buffer containing 5 to 30 mM glucose for 60 mins and measured by ELISA; format: functional, cell-based
# Mus musculus [11] = experiment: Antihyperlipidemic activity in STZ-induced type-2 diabetes Kunming mouse model assessed as serum total cholesterol level at 50 mg/kg, po for 4 weeks (reference value: 9.75 +/-0.11 mM); format: functional
# Mus musculus [12] = experiment: Antihyperlipidemic activity in STZ-induced type-2 diabetes Kunming mouse model assessed as serum triglyceride level at 50 mg/kg, po for 4 weeks (reference value: 3.08 +/- 0.84 mM); format: functional
# Mus musculus [13] = experiment: Antidiabetic activity in STZ-induced type-2 diabetes Kunming mouse model assessed as increase in glucose tolerance at 50 to 100 mg/kg, po for 13 days followed by overnight fasting and later orally treated with glucose for 60 mins and measured after 120 mins by OGTT; format: functional, organism-based
# Mus musculus [14] = experiment: Antihyperlipidemic activity in STZ-induced type-2 diabetes Kunming mouse model assessed as serum total cholesterol level at 100 mg/kg, po for 4 weeks (reference value: 9.75 +/-0.11 mM); format: functional
# Mus musculus [15] = experiment: Antihyperlipidemic activity in STZ-induced type-2 diabetes Kunming mouse model assessed as decrease in serum total cholesterol level at 50 mg/kg, po for 4 weeks relative to diabetic control; format: functional; conditions: 672 h
# Mus musculus [16] = experiment: Antihyperlipidemic activity in STZ-induced type-2 diabetes Kunming mouse model assessed as decrease in serum total cholesterol level at 100 mg/kg, po for 4 weeks relative to diabetic control; format: functional; conditions: 672 h
# Mus musculus [17] = experiment: Antidiabetic activity in STZ-induced type-2 diabetes Kunming mouse model assessed as decrease in fasting blood glucose level at 50 to 100 mg/kg, po administered for 4 weeks by glucometric analysis; format: functional, organism-based
# Mus musculus [18] = experiment: Antidiabetic activity in STZ-induced type-2 diabetes Kunming mouse model assessed as decrease in blood glucose AUC at 50 to 100 mg/kg, po administered for 4 weeks by glucometric analysis; format: functional, organism-based
# Mus musculus [19] = experiment: Antidiabetic activity in STZ-induced type-2 diabetes Kunming mouse model assessed as decrease in postprandial glucose level at 50 mg/kg, po for 2 hrs by glucometer analysis; format: functional, organism-based
# Mus musculus [20] = experiment: Antihyperlipidemic activity in STZ-induced type-2 diabetes Kunming mouse model assessed as serum triglyceride level at 100 mg/kg, po for 4 weeks (reference value: 3.08 +/- 0.84 mM); format: functional
# Mus musculus [21] = experiment: Antidiabetic activity in STZ-induced type-2 diabetes Kunming mouse model assessed as decrease in blood glucose AUC at 50 mg/kg, po for 14 days followed by overnight fasting and later orally treated with maltose for 60 mins and measured after 120 mins by OMTT; format: functional
# Mus musculus [22] = experiment: Antihyperlipidemic activity in STZ-induced type-2 diabetes Kunming mouse model assessed as decrease in serum triglyceride level at 100 mg/kg, po for 4 weeks relative to diabetic control; format: functional; conditions: 672 h
# Mus musculus [23] = experiment: Antihyperlipidemic activity in STZ-induced type-2 diabetes Kunming mouse model assessed as decrease in serum triglyceride level at 50 mg/kg, po for 4 weeks relative to diabetic control; format: functional; conditions: 672 h
# Mus musculus [24] = experiment: Antidiabetic activity in STZ-induced type-2 diabetes Kunming mouse model assessed as decrease in blood glucose AUC at 100 mg/kg, po for 14 days followed by overnight fasting and later orally treated with maltose for 60 mins and measured after 120 mins by OMTT; format: functional
SMILES,pIC50 [1],inhibition [2] [%],Activity (Cricetulus griseus [3]),inhibition [4] [%],Activity (HepG2 [6]),Activity (Cricetulus griseus [7]),inhibition (CHO-K1),inhibition [8] [%],Activity (Mus musculus [11]) [mM],Activity (Mus musculus [12]) [mM],further results
COc1ccc(-c2cc(=O)c3c(O)cc(O[C@@H]4O[C@H](CO)[C@@H](O)[C@H](O)[C@H]4O)cc3o2)cc1O,< 4.00,27.7,Active,29.8,Active,Active,Active,23.4,,,Activity (INS1 [5]): Dose-dependent effect
CN(C)C(=N)NC(=N)N,,,,,,,,,,,Activity (HepG2 [9]): Active
COc1ccc(-c2cc(=O)c3c(O)cc(O)cc3o2)cc1O,,22.8,Active,28.3,Active,Active,Active,27.1,,,
COc1ccc(Cl)cc1C(=O)NCCc1ccc(S(=O)(=O)NC(=O)NC2CCCCC2)cc1,,,,,,,,,,,Activity (INS1 [10]): Active
COc1ccc(-c2cc(=O)c3c(O)cc(O)cc3o2)cc1 [ACACETIN],< 4.00,38.2,Active,32,Active,Active,Active,36.3,,,
C[C@H]1O[C@H](O[C@H]2[C@H](O)[C@@H](O)[C@@H](O[C@H]3[C@H](O)[C@@H](O)C(O)O[C@@H]3CO)O[C@@H]2CO)[C@H](O)[C@@H](O)[C@@H]1N[C@H]1C=C(CO)[C@@H](O)[C@H](O)[C@H]1O (some centres not stated) [ACARBOSE],3.63,,,,,,,,9.61,3.02,
O=c1cc(-c2ccc(O)cc2)oc2cc(O)cc(O)c12 [APIGENIN],5.04,29.8,Active,39.2,Active,Active,Active,20.2,7.6,3.13,Activity (Mus musculus [13]): Active; Activity (Mus musculus [14]): 8.22 mM; inhibition in vivo at 50 mg/kg (Mus musculus [15]): 22.1%; inhibition in vivo at 100 mg/kg (Mus musculus [16]): 15.7%; inhibition (Mus musculus [17]): Active; inhibition (Mus musculus [18]): Active; inhibition (Mus musculus [19]): Active; Activity (Mus musculus [20]): 3.06 mM
COc1ccc(-c2cc(=O)c3c(O)cc(O[C@@H]4O[C@H](CO[C@@H]5O[C@@H](C)[C@H](O)[C@@H](O)[C@H]5O)[C@@H](O)[C@H](O)[C@H]4O)cc3o2)cc1O [DIOSMIN],< 4.00,36.3,Active,30.5,Active,Active,Active,32.8,9.18,2.04,Activity (Mus musculus [13]): Active; inhibition in vivo at 50 mg/kg (Mus musculus [21]): 11.2%; Activity (Mus musculus [14]): 8.94 mM; Activity (INS1 [5]): Dose-dependent effect; inhibition in vivo at 100 mg/kg (Mus musculus [22]): 27.3%; inhibition in vivo at 100 mg/kg (Mus musculus [16]): 8.3%; inhibition (Mus musculus [17]): Active; inhibition in vivo at 50 mg/kg (Mus musculus [23]): 33.8%; inhibition (Mus musculus [18]): Active; inhibition (Mus musculus [19]): Active; Activity (Mus musculus [20]): 2.24 mM; inhibition in vivo at 100 mg/kg (Mus musculus [24]): 13.5%
O=c1cc(-c2ccc(O)c(O)c2)oc2cc(O)cc(O)c12 [LUTEOLIN],4.78,19.8,Active,39.9,Active,Active,Active,40.8,,,
